Reference: patent US10369123B2, “Perk activator for the treatment of neurodegenerative diseases” (DEUTSCHES ZENTRUM FÜR NEURODEGENERATIVE ERKRANKUNGEN E.V. …, priority 2014, dated 2019)
Entries after “also recorded” stand apart in the source; their conditions may differ.

Key:
[1] = system: LUHMES cells; assay: Identification of non-toxic, effective concentrations of PERK modulators (MTT viability, pEIF2A Western blot); assay type: cell-based, human; details: for non-toxic concentration effectively modifying EIF2A phosphorylation: LUHMES neurons, 48 h
Method: Nunc™ Nunclon™ Delta 6-well (for protein and mRNA) or 48-well (for cell assays) plates (Thermo Fisher Scientific, Waltham, Mass., USA) were coated with 100 μg/ml poly-L-lysine (Sigma-Aldrich, St. Louis, Mo., USA) and 5 μg/ml fibronectin (Sigma-Aldrich). […] They were then differentiated for 8 days in a medium of DMEM/F12 (Sigma-Aldrich), 1 μg/ml tetracycline, […] and 490 μg/ml dbcAMP into post-mitotic neurons with a dopaminergic phenotype (Lotharius et al. 2005). […] 20 μg of protein (unless indicated otherwise) were adjusted to equal concentrations between samples by dilution with M-PER and subsequently heated at 95° C. for 5 minutes with Roti®-Load 1 (Carl Roth). SDS-PAGE was performed using Any kD™ Mini-PROTEAN® TGX™ Gels (BioRad, Berkeley, Calif., USA) in a tris-glycine running buffer. The protein was blotted onto PVDF membrane (BioRad) at 70 V for 65 minutes on ice. The membrane was blocked with 1× Roti®-Block solution (Carl Roth) for 1 h and then incubated at 4° C. overnight under gentle shaking with the primary antibody (see Table 5) in TBS with 5% BSA (Cell Signaling Technology) and 0.05% TWEEN (Sigma-Aldrich). Thiazolyl Blue Tetrazolium […] (Sigma Aldrich) was dissolved in sterile PBS to a concentration of 5 mg/ml. […] The 48-well culture plate was then incubated at 37° C. for 1 h, the medium removed completely and frozen at −80° C. for 1 h. The plate was then thawed, 300 μl DMSO (AppliChem, Darmstadt, Germany) was added per well and the plate was shaken to ensure complete dissolution of the violet crystals. 100 μl from each well were transferred to a new 96-well plate and the absorbance was read with the FLUOstar Omega (BMG Labtech) platereader at a wavelength of 590 nm (reference wave length 630 nm). The data was analyzed using the MARS Data Analysis Software (BMG Labtech) and Prism 6.

[2] = system: LUHMES neurons; assay: ATP assay, annonacin-treated LUHMES neurons; assay type: cell-based, human; details: annonacin + PERK activator 200 nM or PERK inhibitor 300 nM, 48 h, vs no PERK modulator
Method: Nunc™ Nunclon™ Delta 6-well (for protein and mRNA) or 48-well (for cell assays) plates (Thermo Fisher Scientific, Waltham, Mass., USA) were coated with 100 μg/ml poly-L-lysine (Sigma-Aldrich, St. Louis, Mo., USA) and 5 μg/ml fibronectin (Sigma-Aldrich). LUHMES (Lund Human Mesencephalic) cells, derived from human embryonic ventral mesencephalic cells by conditional immortalization (Tet-off v-myc over-expression) were seeded out in a concentration of 130,000 cells/cm^2 to achieve a confluence of 50%. They were then differentiated for 8 days in a medium of DMEM/F12 (Sigma-Aldrich), 1 μg/ml tetracycline, […] and 490 μg/ml dbcAMP into post-mitotic neurons with a dopaminergic phenotype (Lotharius et al. 2005).
For all experiments with annonacin, the medium was replaced during the intoxication period with new medium containing glucose levels reduced to 250 μM, i.e. the physiological concentration in the human brain.
ATP assays were conducted using the ViaLight™ plus kit by Lonza according to the manufacturer's instructions. Luminescence was read with the FLUOstar Omega (BMG Labtech) platereader. The data was analyzed using the MARS Data Analysis Software (BMG Labtech) and Prism 6.

SMILES | non-toxic concentration effectively modifying EIF2A phosphorylation [1] | doses at which detrimental effects of UPR overactivation were seen ([1]; in vitro) | ATP concentration, effect of co-treatment [2]
CCN(CC)CCC(=O)N1N=C(c2c(-c3ccccc3)c3cc(Br)ccc3[nH]c2=O)CC1c1ccc(Br)cc1 (centres unmarked) [CCT020312, 6-bromo-3-[5-(4-bromo-phenyl)-1-(3-diethylamino-propionyl)-4,5-dihydro-1H-pyrazol-3-yl]-4-phenyl-1H-quinolin-2-one] | 200 nM | > 3 µM | significant improvement
Cn1cc(-c2ccc3c(c2)CCN3C(=O)Cc2cccc(C(F)(F)F)c2)c2c(N)ncnc21 [GSK2606414, reference compound] | 300 nM | – | slightly improved ATP concentrations at the single annonacin concentration of 12.5 nM; also recorded: significant only at an annonacin concentration of 12.5 nM
